# Data from US11535643B2, “Macrolides with modified desosamine sugars and uses thereof” (President and Fellows of Harvard College, priority 2015, dated 2022).
# Read-outs that look alike come from different tables or passages of the source.
# Key:
# Type in all cases: cell-based
# P. aeruginosa = experiment: Broth dilution MIC determination (CLSI) against P. aeruginosa strains; details: for MIC: Pseudomonas aeruginosa
# Summary of the method: (§1)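 Azithromycin and solithromycin were run alongside as controls. Strain panels included multidrug-resistant isolates, with emphasis on macrolide-resistance mechanisms, and MICs followed CLSI broth dilution procedures.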
# S. pneumoniae = experiment: Broth dilution MIC determination (CLSI) against S. pneumoniae strains; details: for MIC: Streptococcus pneumoniae
# Summary of the method: as §1
# E. coli = experiment: Broth dilution MIC determination (CLSI) against E. coli strains; details: for MIC: Escherichia coli
# Summary of the method: as §1
# S. pyogenes = experiment: Broth dilution MIC determination (CLSI) against S. pyogenes strains; details: for MIC: Streptococcus pyogenes
# Summary of the method: as §1
# H. influenzae = experiment: Broth dilution MIC determination (CLSI) against H. influenzae strains; details: for MIC: Haemophilus influenzae
# Source text: Minimum inhibitory concentrations (MICs) for macrolides described herein have been determined for unique strains of S. aureus, S. pneumoniae, S. pyogenes, E. faecalis, E. coli, A. baumannii, K. pneumoniae, P. aeruginosa, and H. influenzae, including several multidrug-resistant strains, with a special focus on macrolide resistant mechanisms. Azithromycin and solithromycin were included as control compounds. CLSI standard procedures for broth dilution MIC determination were used. Data for exemplary compounds described herein is shown in Tables M1-M7 and in Tables N1-N4.
# S. aureus = experiment: Broth dilution MIC determination (CLSI) against S. aureus strains; details: for MIC: Staphylococcus aureus
# Summary of the method: as §1
# K. pneumoniae = experiment: Broth dilution MIC determination (CLSI) against K. pneumoniae strains; details: for MIC: Klebsiella pneumoniae
# Summary of the method: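 CLSI broth-dilution MICs across a panel including multidrug- and macrolide-resistant strains, with azithromycin and solithromycin as control compounds.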
# A. baumannii = experiment: Broth dilution MIC determination (CLSI) against A. baumannii strains; details: for MIC: Acinetobacter baumannii
# Summary of the method: as §1
# E. faecalis = experiment: Broth dilution MIC determination (CLSI) against E. faecalis strains; details: for MIC: Enterococcus faecalis
# Summary of the method: as §1
# [1] = ATCC27853, read-out: MIC P. aeruginosa ATCC27853
# [2] = ATCC49619, ATCC49619, read-out: MIC S. pneumoniae ATCC49619
# [3] = erm B + mef A genotype, read-out: MIC S. pneumoniae erm B + mef A genotype
# [4] = erm B + tet(M, O) genotype, read-out: MIC S. pneumoniae erm B + tet(M, O) genotype
# [5] = read-out: MIC S. pneumoniae mef A genotype, mef A genotype
# [6] = read-out: MIC S. pneumoniae mef A genotype, mef A genotype, first of two such columns (c3)
# [7] = ATCC25922, ATCC25922, read-out: MIC E. coli ATCC25922
# [8] = read-out: MIC E. coli NDM-1, NDM-1
# [9] = ATCC19615, ATCC19615, read-out: MIC S. pyogenes ATCC19615
# [10] = macrolide-resistant, read-out: MIC S. pyogenes macrolide-resistant
# [11] = ATCC49247, ATCC49247, read-out: MIC H. influenzae ATCC49247
# [12] = erythro > 4, azithro 1, read-out: MIC H. influenzae erythro > 4, azithro 1
# [13] = ATCC29213, ATCC29213, read-out: MIC S. aureus ATCC29213
# [14] = MRSA / USA100, MRSA: USA100, read-out: MIC S. aureus MRSA: USA100
# [15] = MRSA / USA300, MRSA: USA300, read-out: MIC S. aureus MRSA: USA300
# [16] = USA600, USA600, GISA, read-out: MIC S. aureus USA600, GISA
# [17] = read-out: MIC S. aureus erm A genotype
# [18] = ATCC10031, ATCC10031, read-out: MIC K. pneumoniae ATCC10031
# [19] = KPC-2, read-out: MIC K. pneumoniae KPC-2
# [20] = ATCC19606, ATCC19606, read-out: MIC A. baumannii ATCC19606
# [21] = imipenem-resistant, read-out: MIC A. baumannii imipenem-resistant
# [22] = ATCC29212, ATCC29212, read-out: MIC E. faecalis ATCC29212
# [23] = Vancomycin-resistant, read-out: MIC E. faecalis Vancomycin-resistant
structure (smiles),measurement,setting,value
CCC1OC(=O)C(C)C(=O)C(C)C(OC2OC(COC(=O)c3ccccc3)C(O)C(N(C)C)C2O)C(C)(OC)CC(C)CNC(C)C2N(CCCCn3cc(-c4cccc(N)c4)nn3)C(=O)OC12C (centres unmarked) [FSM-21797],MIC P. aeruginosa ATCC27853,P. aeruginosa; ATCC27853,>32 µg/mL
same,MIC S. pneumoniae ATCC49619,S. pneumoniae,32 µg/mL
same,MIC S. pneumoniae erm B + mef A genotype,S. pneumoniae; erm B + mef A genotype,>32 µg/mL
same,"MIC S. pneumoniae erm B + tet(M, O) genotype","S. pneumoniae; erm B + tet(M, O) genotype",16 µg/mL
same,MIC E. coli ATCC25922,E. coli,>32 µg/mL
same,MIC E. coli NDM-1,E. coli,>32 µg/mL
same,MIC S. pyogenes ATCC19615,S. pyogenes,8 µg/mL
same,MIC S. pyogenes macrolide-resistant,S. pyogenes; macrolide-resistant,32 µg/mL
same,MIC H. influenzae ATCC49247,H. influenzae,>32 µg/mL
same,"MIC H. influenzae erythro > 4, azithro 1","H. influenzae; erythro > 4, azithro 1",>32 µg/mL
same,MIC S. aureus ATCC29213,S. aureus,>32 µg/mL
same,MIC S. aureus MRSA: USA100,S. aureus,>32 µg/mL
same,MIC S. aureus MRSA: USA300,S. aureus,>32 µg/mL
same,"MIC S. aureus USA600, GISA",S. aureus,>32 µg/mL
same,MIC S. aureus erm A genotype,S. aureus,>32 µg/mL
same,MIC K. pneumoniae ATCC10031,K. pneumoniae,>32 µg/mL
same,MIC K. pneumoniae KPC-2,K. pneumoniae; KPC-2,>32 µg/mL
same,MIC A. baumannii ATCC19606,A. baumannii,>32 µg/mL
same,MIC A. baumannii imipenem-resistant,A. baumannii; imipenem-resistant,>32 µg/mL
same,MIC E. faecalis ATCC29212,E. faecalis,32 µg/mL
same,MIC E. faecalis Vancomycin-resistant,E. faecalis; Vancomycin-resistant,>32 µg/mL
CCC1OC(=O)C(C)(F)C(=O)C(C)C(OC2OC(COC(=O)c3ccccc3)C(O)C(N(C)C)C2O)C(C)(OC)CC(C)CNC(C)C2N(CCCCn3cc(-c4cccc(N)c4)nn3)C(=O)OC12C (centres unmarked) [FSM-21798],MIC P. aeruginosa ATCC27853,P. aeruginosa; ATCC27853,>32 µg/mL
same,MIC S. pneumoniae ATCC49619,S. pneumoniae,>32 µg/mL
same,MIC S. pneumoniae erm B + mef A genotype,S. pneumoniae; erm B + mef A genotype,>32 µg/mL
same,"MIC S. pneumoniae erm B + tet(M, O) genotype","S. pneumoniae; erm B + tet(M, O) genotype",>32 µg/mL
same,MIC E. coli ATCC25922,E. coli,>32 µg/mL
same,MIC E. coli NDM-1,E. coli,>32 µg/mL
same,MIC S. pyogenes ATCC19615,S. pyogenes,8 µg/mL
same,MIC S. pyogenes macrolide-resistant,S. pyogenes; macrolide-resistant,32 µg/mL
same,MIC H. influenzae ATCC49247,H. influenzae,>32 µg/mL
same,"MIC H. influenzae erythro > 4, azithro 1","H. influenzae; erythro > 4, azithro 1",>32 µg/mL
same,MIC S. aureus ATCC29213,S. aureus,>32 µg/mL
same,MIC S. aureus MRSA: USA100,S. aureus,>32 µg/mL
same,MIC S. aureus MRSA: USA300,S. aureus,>32 µg/mL
same,"MIC S. aureus USA600, GISA",S. aureus,>32 µg/mL
same,MIC S. aureus erm A genotype,S. aureus,>32 µg/mL
same,MIC K. pneumoniae ATCC10031,K. pneumoniae,>32 µg/mL
same,MIC K. pneumoniae KPC-2,K. pneumoniae; KPC-2,>32 µg/mL
same,MIC A. baumannii ATCC19606,A. baumannii,>32 µg/mL
same,MIC A. baumannii imipenem-resistant,A. baumannii; imipenem-resistant,>32 µg/mL
same,MIC E. faecalis ATCC29212,E. faecalis,32 µg/mL
same,MIC E. faecalis Vancomycin-resistant,E. faecalis; Vancomycin-resistant,>32 µg/mL
CC[C@H]1OC(=O)[C@H](C)C(=O)[C@H](C)[C@@H](O[C@@H]2OC(CNC(=O)C(Cl)Cl)CC(N(C)C)C2O)[C@](C)(OC)C[C@@H](C)CN[C@H](C)[C@H]2N(CCCCn3cc(-c4cccc(N)c4)nn3)C(=O)O[C@]12C (some centres unmarked) [FSM-21842],MIC,P. aeruginosa; [1],> 32 µg/mL
same,MIC,P. aeruginosa; read-out: MIC P. aeruginosa HPA101-1477,> 32 µg/mL
same,MIC,S. pneumoniae; [2],≤ 0.0312 µg/mL
same,MIC,S. pneumoniae; [3],8 µg/mL
same,MIC,S. pneumoniae; [4],≤ 0.0312 µg/mL
same,MIC,S. pneumoniae; [5],1 µg/mL
same,MIC,S. pneumoniae; [6],0.125 µg/mL
same,MIC,E. coli; [7],16 µg/mL
same,MIC,"E. coli; read-out: MIC E. coli CTX-M-14, CTX-M-14",> 32 µg/mL
same,MIC,E. coli; [8],32 µg/mL
same,MIC,"E. coli; read-out: MIC E. coli TEM-1, TEM-1",16 µg/mL
same,MIC,S. pyogenes; [9],≤ 0.0312 µg/mL
same,MIC,S. pyogenes; [10],0.5 µg/mL
same,MIC,H. influenzae; [11],4 µg/mL
same,MIC,H. influenzae; [12],4 µg/mL
same,MIC,S. aureus; [13],4 µg/mL
same,MIC,S. aureus; [14],> 32 µg/mL
same,MIC,S. aureus; [15],> 32 µg/mL
same,MIC,S. aureus; [16],> 32 µg/mL
same,MIC,S. aureus; [17],> 32 µg/mL
same,MIC,K. pneumoniae; [18],4 µg/mL
same,MIC,K. pneumoniae; [19],> 32 µg/mL
same,MIC,"K. pneumoniae; SHV-12, read-out: MIC K. pneumoniae SHV-12",> 32 µg/mL
same,MIC,"K. pneumoniae; TEM-10, read-out: MIC K. pneumoniae TEM-10",32 µg/mL
same,MIC,A. baumannii; [20],32 µg/mL
same,MIC,"A. baumannii; IMP-4, read-out: MIC A. baumannii IMP-4",> 32 µg/mL
same,MIC,"A. baumannii; chromosomal class C, read-out: MIC A. baumannii chromosomal class C",> 32 µg/mL
same,MIC,A. baumannii; [21],> 32 µg/mL
same,MIC,E. faecalis; [22],1 µg/mL
same,MIC,E. faecalis; [23],> 32 µg/mL
CC[C@H]1OC(=O)[C@H](C)C(=O)[C@H](C)[C@@H](O[C@@H]2OC(CNC(=N)N)CC(N(C)C)C2O)[C@](C)(OC)C[C@@H](C)CN[C@H](C)[C@H]2N(CCCCn3cc(-c4cccc(N)c4)nn3)C(=O)O[C@]12C (some centres unmarked) [FSM-21843],MIC,P. aeruginosa; [1],> 32 µg/mL
same,MIC,S. pneumoniae; [2],0.5 µg/mL
same,MIC,S. pneumoniae; [3],32 µg/mL
same,MIC,S. pneumoniae; [4],0.25 µg/mL
same,MIC,S. pneumoniae; [5],8 µg/mL
same,MIC,S. pneumoniae; [6],4 µg/mL
same,MIC,E. coli; [7],> 32 µg/mL
same,MIC,E. coli; [8],> 32 µg/mL
same,MIC,S. pyogenes; [9],2 µg/mL
same,MIC,S. pyogenes; [10],8 µg/mL
same,MIC,H. influenzae; [11],32 µg/mL
same,MIC,H. influenzae; [12],32 µg/mL
same,MIC,S. aureus; [13],> 32 µg/mL
same,MIC,S. aureus; [14],> 32 µg/mL
same,MIC,S. aureus; [15],> 32 µg/mL
same,MIC,S. aureus; [16],> 32 µg/mL
same,MIC,S. aureus; [17],> 32 µg/mL
same,MIC,K. pneumoniae; [18],32 µg/mL
same,MIC,K. pneumoniae; [19],> 32 µg/mL
same,MIC,A. baumannii; [20],> 32 µg/mL
same,MIC,A. baumannii; [21],> 32 µg/mL
same,MIC,E. faecalis; [22],> 32 µg/mL
same,MIC,E. faecalis; [23],> 32 µg/mL
